Laboratory results published in EPA's ToxValDB 9.5 (doi:10.2903/j.efsa.2009.1350).
≈ marks a conversion by molar mass, not a printed value.

Tests used:
[1] = tested on: Rattus norvegicus; conditions: for LD50: acute; for NOAEL: histopathology: nonneoplastic
[2] = tested on: Anas platyrhynchos; conditions: for NOEC: reproductive
[3] = tested on: Apis mellifera; conditions: acute; duration: 48 hours; oral; unspecified; mortality
[4] = tested on: Bibionidae; conditions: chronic/long-term; duration: 28 days
[5] = tested on: Canidae; conditions: subchronic; duration: 90 days; oral; diet; Dog Other; clinical signs
[6] = tested on: Colinus virginianus
[7] = tested on: Cyprinodon variegatus; conditions: mortality
[8] = tested on: Daphnia magna; conditions: chronic/long-term; duration: 21 days; reproduction
[9] = tested on: Lolium perenne; conditions: acute; duration: 21 days; other
[10] = tested on: Neomysis kadiakensis; conditions: chronic/long-term; duration: 28 days; reproduction
[11] = tested on: Oncorhynchus mykiss
[12] = tested on: Tagia sp.
[13] = tested on: Typhlodromus pyri; assay: LR50; higher = less toxic; conditions: acute; duration: 7 days; mortality

**Q.** For `CCCOc1nc2ccccc2c(=O)n1CCC` [2-Propoxy-3-propyl-4(3H)-quinazolinone], which LD50 ([1]; oral, mortality) is on record?
**A.** 2050 mg/kg-day

**Q.** `CCCOc1nc2ccc(I)cc2c(=O)n1CCC` [Proquinazid] was tested. Which NOEC ([2]; F) did it give?
**A.** 29.6 mg/kg-day

**Q.** And the NOEC ([2]; M)?
**A.** 31.5 mg/kg-day

**Q.** What about the LC50 ([2]; short-term, oral, feed, mortality) of the same compound?
**A.** 3110 mg/kg-day

**Q.** And the LD50 [3]?
**A.** > 125 µg/piece

**Q.** And the NOEC [4]?
**A.** 0.465 mg/L

**Q.** And the NOAEL [5]?
**A.** 19 mg/kg-day

**Q.** And the LC50 ([6]; acute, oral, diet, mortality)?
**A.** 1370 mg/kg-day

**Q.** What about the LD50 ([6]; acute, oral, mortality) of the same compound?
**A.** > 2250 mg/kg-day

**Q.** And the NOEC ([6]; reproduction developmental)?
**A.** 7.78 mg/kg-day

**Q.** What about the LC50 ([7]; acute, duration: 96 hours) of the same compound?
**A.** > 0.58 mg/L

**Q.** And the NOEC ([7]; chronic/long-term, duration: 36 days)?
**A.** 0.00872 mg/L

**Q.** And the NOEC [8]?
**A.** 0.0018 mg/L

**Q.** And the LEL [9]?
**A.** 75 g/ha

**Q.** And the NOEC [10]?
**A.** 0.0105 mg/L

**Q.** What about the LC50 ([11]; acute, duration: 96 hours, mortality) of the same compound?
**A.** 0.349 mg/L (≈ 0.938 µM)

**Q.** What about the NOEC ([11]; chronic/long-term, duration: 90 days, other) of the same compound?
**A.** 0.003 mg/L

**Q.** What about the LD50 ([1]; oral, mortality) of the same compound?
**A.** 4850 mg/kg-day

**Q.** And the NOAEL ([1]; chronic, duration: 2 years)?
**A.** 1.2 mg/kg-day

**Q.** And the NOEL ([1]; chronic, mortality)?
**A.** > 600 mg/kg-day

**Q.** What about the NOEL ([1]; reproduction developmental, reproduction) of the same compound?
**A.** 35.1 mg/kg-day

**Q.** And the NOAEL ([1]; subchronic, duration: 90 days, oral, diet)?
**A.** 2 mg/kg-day

**Q.** And the LC50 ([12]; acute, duration: 14 days, mortality)?
**A.** > 1000 mg/kg

**Q.** And the NOEC ([12]; chronic/long-term, duration: 56 days)?
**A.** > 50.9 mg/kg

**Q.** And the LR50 [13]?
**A.** 47.9 g/ha
